In one series the target is T1, CYP2C8 (Homo sapiens, UniProt P10632).
T1 construct: from tissue; host or cells: pooled human liver microsomes
T1 sequence (P10632 1-490): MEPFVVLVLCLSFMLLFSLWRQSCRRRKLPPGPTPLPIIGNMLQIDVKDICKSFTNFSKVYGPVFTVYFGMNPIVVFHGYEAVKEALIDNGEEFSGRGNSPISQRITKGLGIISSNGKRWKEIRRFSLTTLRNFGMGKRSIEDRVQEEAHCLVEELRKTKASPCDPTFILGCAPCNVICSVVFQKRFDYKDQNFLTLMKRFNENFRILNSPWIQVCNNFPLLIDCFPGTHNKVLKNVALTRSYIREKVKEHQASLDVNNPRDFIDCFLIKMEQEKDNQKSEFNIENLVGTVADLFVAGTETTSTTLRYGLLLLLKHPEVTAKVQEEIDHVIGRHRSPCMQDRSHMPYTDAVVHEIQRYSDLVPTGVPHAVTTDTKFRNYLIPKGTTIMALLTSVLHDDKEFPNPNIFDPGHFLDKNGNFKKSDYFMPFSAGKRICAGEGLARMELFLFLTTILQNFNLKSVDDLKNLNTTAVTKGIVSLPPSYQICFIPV
The experiment in a line: CYP-direct inhibition, CYP2C8. Type of series: in vitro ADME. How it is done:
Many drugs inhibit cytochrome P450 enzymes to cause clinically significant changes in the pharmacokinetics of other drugs. In vitro cytochrome P450 inhibition, can provide crucial information in evaluating potential clinical drug-drug interactions and is useful for focusing in vivo tests to areas of concern. The cytochrome P450 inhibition assay was developed by preparing a working cocktail solution consisting of six probe substrates 10 μM ethoxy-resorufin (CYP1A2), 100 μM rosiglitazone (CYP2C8), 50 μM diclofenac (CYP2C9), 300 μM S-mephenytoin (CYP2C19), 50 μM dextromethorphan (CYP2D6), and 20 μM midazolam (CYP3A4). A mixture solution consists of 140 uL of 0.286 mg/mL of pooled human liver microsome working solution and 20 uL working solutions of test articles, standard control inhibitors, or positive control placebo and 20 uL of substrate cocktail mixture working solution was prepared. The mixture solution was pre-warm in a gentle shaking bath at 37±2° C. for 5 minutes. The enzymatic reaction started by adding 20 uL of NRS working solution to the mixture solution and incubated for 10 minutes at 37±2° C. To stop the reaction, an addition of 400 μL cold stop solution (acetonitrile containing 50 ng/mL Tolbutamide as an internal standard (I.Std.) was added to the mixture solution. The final concentration of test article, inhibitors, substrates, and cofactors are noted in Table 0.1 below. Two individual samples were prepared for each test compound. The extracted samples were vortexed and then centrifuged at 4500 rpm for 7 minutes using Eppendorf Centrifuge 5910R. 200 uL of supernatant was diluting with 200 uL of 50% Methanol into 96-DW plate for LC/MS/MS analysis
Concentration-response plots are used to determine the effects of an inhibitor on an enzymatic reaction. A typical concentration-response plot provides fractional activity (Y axis) is plotted as a function of log inhibitor concentration (X axis). The data are fitted using a standard Sigmoidal dose-response equation which is also called a […] logistic equation. The concentration of compound that results in 50% inhibition of maximal activity is termed as the IC50 (inhibitor concentration yielding 50% inhibition). IC50 value is calculated using Prism GraphPad software, version 9. […].
Cytochrome P450 inhibition of a drug is a key factor in determining pharmacokinetic drug-drug interactions. The objective of this study was to evaluate the inhibition potential of G9a inhibitors on six (6) major human cytochrome P450 enzymes, including CYP1A2, CYP2C8, CYP2C9, CYP2C19, CYP2D6, and CYP3A4. Inhibition was determined by using a substrate cocktail and analyzing the rate of specific metabolites formation. The cytochrome P450 inhibition assay was developed using a cocktail consisting of six (6) probe substrates ethoxy-resorufin (CYP1A2), rosiglitazone (CYP2C8), diclofenac (CYP2C9), S-mephenytoin (CYP2C19), dextromethorphan (CYP2D6), and midazolam (CYP3A4). The cocktail was incubated in human liver microsome with NADPH regenerating system (NRS) in a shaking bath at 37±2° C. The formation of specific metabolites was monitored by LC/MS/MS. Test compound was added to the cocktail-liver microsome mixture at varying concentrations and its effect on cytochrome P450 activity was determined by analyzing the rate of specific metabolite formation. The percent inhibition was calculated and plotted with reference to the concentration, and the IC50 value for inhibition was derived by fitting the data with a using log(inhibitor) vs. normalized response with variable slope least squares fit by Graphpad Prism® software. […].

A short description of series [1]: In-vitro half-life in rat liver microsomes. Type of series: in vitro ADME. The following applies: Rat liver microsomes 0.5 mg/mL; 1 μg/mL drug; NRS; read-out: Metabolic Half-life. The method, then:
In each of the species (human, rat, mouse) of liver matrix to be tested, a working concentration of 2 μg/mL was prepared of each test article from the 0.5 mg/mL DMSO stock solution by adding 3 μL of 0.5 mg/mL test article stock solution to 747 μL of the 1 mg/mL liver matrix. Incubation was performed at 37±2° C. with gentle, continuous mixing in shaking water bath in 2.0 mL-well capacity 96-Deepwell plates (96-DWP). Samples were retrieved in duplicate at the following time points: 0, 5, 10, 15, 30 and 60 minutes. The final mixture contained 1 μg/mL of drug and 0.5 mg/mL of liver matrix. First, 50 μL of test articles in liver matrix was added to the 96-DWP and pre-warmed the mixture in the 96-DWP for 2 minutes in the 37° C. water bath. The enzymatic reaction was started by the addition of 50 μL of the corresponding 2× NADPH regenerating system (NRS) cofactor solution to all sample wells and stopped by the addition of 300 μL of stop solution (acetonitrile containing 10 ng/mL Tolbutamide as an internal standard (I.Std.). The samples were agitated for 10 minutes and then centrifuged for 20 minutes at 4500 rpm. 25 μL of supernatant was diluted with 475 μL acetonitrile containing I. Std. into a new 96-DWPs for LC-MS/MS analysis.
Half-life calculations were generated and calculated by Graphpad Prism® software. The half-life of test compound was calculated based on the first-order reaction kinetics. The data was transformed to linear regression (y=log(y) where “y” axis represents the % compound remaining at any given time with respect to time 0 minutes; “x” axis represents time in minutes) in order to calculate the half-life.
A comparison of metabolic stability in time-course incubation experiments in varying species of liver can provide information of pharmacokinetic properties of drugs attributable to species-related differences in hepatic metabolism. The results of these experiments often assist in further applications such as assessing in vitro metabolite profiling and choosing relevant species for toxicology studies based on similarities relative to the metabolic stability to the human profile. For these experiments, the test compound was tested in parallel with a positive control, Dasatinab, in an enzymatic reaction solution of each species (human and rat) of liver microsomes containing a NADPH regenerating system (NRS). The final mixture contained 1 μg/mL of drug and 0.5 mg/mL of liver matrix. Incubations were performed at 37±2° C. with gentle, continuous mixing in shaking water bath in 96-Deep well plates. The stability of the test compound is monitored using fast, specific and sensitive LC/MS/MS analysis.

Molecules are shown by their SMILES. Some results are limits rather than exact numbers.

The term IC50 denotes the concentration at which inhibition is half-maximal. High values mean a need for much substance, low ones inhibition by little substance. What is called half-life is the time in which the quantity being followed falls by half. The compound `COc1cc2c(NC3CCS(=O)(=O)CC3)nc(N3CCC(F)(F)CC3)nc2cc1OCCCN1CCCC1` [Compound 1, 4-((2-(4,4-difluoropiperidin-1-yl)-6-methoxy-7-(3-(pyrrolidin-1-yl)propoxy)quinazolin-4-yl)amino)tetrahydro-2H-thiopyran 1,1-dioxide] returned an IC50 against CYP2C8 of 89.1 µM. Further, in series [1], the half-life at 1 μg/mL was more than 1 h.

For the compound `COc1cc2c(NC3CCOCC3)nc(N3CCC(F)(F)CC3)nc2cc1OCCCN1CCCC1` [Compound 2, 2-(4,4-difluoropiperidin-1-yl)-6-methoxy-7-(3-(pyrrolidin-1-yl)propoxy)-N-(tetrahydro-2H-pyran-4-yl)quinazolin-4-amine], the IC50 at CYP2C8 came to 20.4 µM. Further, the half-life at 1 μg/mL in series [1] came out at 0.828 h.

Turning to `COCCN1CCC(Nc2nc(N3CCC(F)(F)CC3)nc3cc(OCCCN4CCCC4)c(OC)cc23)CC1` [Compound 3, 2-(4,4-difluoropiperidin-1-yl)-6-methoxy-N-(1-(2-methoxyethyl)piperidin-4-yl)-7-(3-(pyrrolidin-1-yl)propoxy)quinazolin-4-amine], on CYP2C8, the IC50 was more than 100 µM. For the same compound, the half-life at 1 μg/mL in series [1] was more than 1 h.

With `COCCNc1nc(N2CCC(F)(F)CC2)nc2cc(OCCCN3CCCC3)c(OC)cc12` [Compound 4, 2-(4,4-difluoropiperidin-1-yl)-6-methoxy-N-(2-methoxyethyl)-7-(3-(pyrrolidin-1-yl)propoxy)quinazolin-4-amine], 27.4 µM corresponded to half-maximal inhibition on CYP2C8 (IC50). In addition, the half-life at 1 μg/mL in series [1] was more than 1 h.

`COc1cc2c(NCC3CCN(C)CC3)nc(N3CCC(F)(F)CC3)nc2cc1OCCCN1CCCC1` [Compound 5, 2-(4,4-difluoropiperidin-1-yl)-6-methoxy-N-((1-methylpiperidin-4-yl)methyl)-7-(3-(pyrrolidin-1-yl)propoxy)quinazolin-4-amine] registered an IC50 against CYP2C8 of more than 100 µM. Further, the half-life at 1 μg/mL in series [1] is more than 1 h.

With `COc1cc2c(Nc3ccncc3)nc(N3CCC(F)(F)CC3)nc2cc1OCCCN1CCCC1` [Compound 7, 2-(4,4-difluoropiperidin-1-yl)-6-methoxy-N-(pyridin-4-yl)-7-(3-(pyrrolidin-1-yl)propoxy)quinazolin-4-amine], it took 75.7 µM to reach half-maximal inhibition against CYP2C8 (IC50). Besides, in series [1], the half-life at 1 μg/mL was 0.617 h.

At CYP2C8, `COc1cc2c(NC3CCNCC3)nc(N3CCC(F)(F)CC3)nc2cc1OCCCN1CCCC1` [Compound 8, 2-(4,4-difluoropiperidin-1-yl)-6-methoxy-N-(piperidin-4-yl)-7-(3-(pyrrolidin-1-yl)propoxy)quinazolin-4-amine] displayed an IC50 of more than 100 µM. The half-life at 1 μg/mL in series [1] is more than 1 h.

`COc1cc2c(NCC(N)=O)nc(N3CCC(F)(F)CC3)nc2cc1OCCCN1CCCC1` [Compound 9, 2-((2-(4,4-difluoropiperidin-1-yl)-6-methoxy-7-(3-(pyrrolidin-1-yl)propoxy)quinazolin-4-yl)amino)acetamide] displayed an IC50 against CYP2C8 of more than 100 µM. Also, the half-life at 1 μg/mL in series [1] was more than 1 h.

`COc1cc2c(NC3COC3)nc(N3CCC(F)(F)CC3)nc2cc1OCCCN1CCCC1` [Compound 11, 2-(4,4-difluoropiperidin-1-yl)-6-methoxy-N-(oxetan-3-yl)-7-(3-(pyrrolidin-1-yl)propoxy)quinazolin-4-amine] came in with an IC50 on CYP2C8 of 16 µM. For the same compound, the half-life at 1 μg/mL in series [1] was more than 1 h.

In turn, `COc1cc2c(NC3CCS(=O)(=O)CC3)nc(N3CCCC3)nc2cc1OCCCN1CCCC1` [Compound 80, 4-((6-methoxy-2-(pyrrolidin-1-yl)-7-(3-(pyrrolidin-1-yl)propoxy)quinazolin-4-yl)amino)tetrahydro-2H-thiopyran 1,1-dioxide] had an IC50 against CYP2C8 of 23.4 µM. The half-life at 1 μg/mL in series [1] was more than 1 h.

`COc1cc2c(NC3CCS(=O)(=O)CC3)nc(N3CCOCC3)nc2cc1OCCCN1CCCC1` [Compound 102, 4-((6-methoxy-2-morpholino-7-(3-(pyrrolidin-1-yl)propoxy)quinazolin-4-yl)amino)tetrahydro-2H-thiopyran 1,1-dioxide] had an IC50 against CYP2C8 of 60.6 µM. Further, the half-life at 1 μg/mL in series [1] was more than 1 h.

On CYP2C8, `COc1cc2c(NC3CCS(=O)(=O)CC3)nc(N3CCS(=O)(=O)CC3)nc2cc1OCCCN1CCCC1` [Compound 103, 4-(4-((1,1-dioxidotetrahydro-2H-thiopyran-4-yl)amino)-6-methoxy-7-(3-(pyrrolidin-1-yl)propoxy)quinazolin-2-yl)thiomorpholine 1,1-dioxide] had an IC50 of more than 100 µM. Besides, the half-life at 1 μg/mL in series [1] was more than 1 h.

Take `COc1cc2c(NC3CCS(=O)(=O)CC3)nc(N3CCN(C)CC3)nc2cc1OCCCN1CCCC1` [Compound 109, 4-((6-methoxy-2-(4-methylpiperazin-1-yl)-7-(3-(pyrrolidin-1-yl)propoxy)quinazolin-4-yl)amino)tetrahydro-2H-thiopyran 1,1-dioxide]: the IC50 against CYP2C8 is more than 100 µM. The half-life at 1 μg/mL in series [1] was more than 1 h.

In the case of `COc1cc2c(NC3CCS(=O)(=O)CC3)nc(N3CCCN(C)CC3)nc2cc1OCCCN1CCCC1` [Compound 110, 4-((6-methoxy-2-(4-methyl-1,4-diazepan-1-yl)-7-(3-(pyrrolidin-1-yl)propoxy)quinazolin-4-yl)amino)tetrahydro-2H-thiopyran 1,1-dioxide], the IC50 on CYP2C8 is more than 100 µM. In series [1], the half-life at 1 μg/mL is more than 1 h.

The values above are taken from patent publication US11485728B2, “Small molecules for the treatment of autoimmune diseases and cancer” (Athos Therapeutics, Inc., priority 2020, dated 2022).
